Experimental data: ChEMBL document CHEMBL4837249, “Discovery of Potent Antiallergic Agents Based on an o-Aminopyridinyl Alkynyl Scaffold” (J Med Chem, 2021)

Columns and labels:
[1] = molecular target: T1, Macrophage colony-stimulating factor 1 receptor (Homo sapiens, UniProt P07333); assay: Inhibition of human recombinant CSF1R using ATP/Ulight-TK peptide incubated for 15 mins
[2] = molecular target: T2, Cytoplasmic tyrosine-protein kinase BMX (Homo sapiens) (UniProt P51813); assay: Inhibition of human full length recombinant Bmx at 50 nM by radiometric scintillation counting analysis relative to control
T2 sequence (whole entry): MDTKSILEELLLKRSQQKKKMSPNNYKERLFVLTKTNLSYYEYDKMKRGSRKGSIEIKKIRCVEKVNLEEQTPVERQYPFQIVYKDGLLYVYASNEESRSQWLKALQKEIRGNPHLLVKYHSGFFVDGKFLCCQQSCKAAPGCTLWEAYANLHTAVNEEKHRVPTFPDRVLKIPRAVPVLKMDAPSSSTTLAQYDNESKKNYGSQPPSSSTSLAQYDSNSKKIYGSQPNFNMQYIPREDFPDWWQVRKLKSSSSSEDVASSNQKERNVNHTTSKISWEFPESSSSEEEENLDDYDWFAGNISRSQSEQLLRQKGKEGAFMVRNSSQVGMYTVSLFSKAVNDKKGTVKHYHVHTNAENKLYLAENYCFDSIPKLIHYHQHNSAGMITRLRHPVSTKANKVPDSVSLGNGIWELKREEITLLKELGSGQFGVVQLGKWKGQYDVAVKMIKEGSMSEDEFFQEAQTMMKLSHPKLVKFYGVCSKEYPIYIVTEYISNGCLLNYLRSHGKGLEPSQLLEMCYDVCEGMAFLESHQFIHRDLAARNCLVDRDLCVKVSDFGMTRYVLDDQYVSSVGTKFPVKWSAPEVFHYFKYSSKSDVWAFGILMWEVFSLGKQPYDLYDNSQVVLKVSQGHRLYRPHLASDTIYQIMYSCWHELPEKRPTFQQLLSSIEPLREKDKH

[3] = molecular target: Proto-oncogene tyrosine-protein kinase Src (Homo sapiens, UniProt P12931); assay: Inhibition of human recombinant Src (1-530) by radiometric scintillation counting analysis
[4] = molecular target: Tyrosine-protein kinase CSK (Homo sapiens, UniProt P41240); assay: Inhibition of human full length recombinant CSK by radiometric scintillation counting analysis
[5] = molecular target: Tyrosine-protein kinase BTK (Homo sapiens) (UniProt Q06187); assay: Inhibition of human full length recombinant BTK at 50 nM by radiometric scintillation counting analysis relative to control
[6] = molecular target: T3, Tyrosine-protein kinase Tec (Homo sapiens) (UniProt P42680); assay: Inhibition of human recombinant Tec (174 to end) at 500 nM by radiometric scintillation counting analysis relative to control
T3 sequence (whole entry): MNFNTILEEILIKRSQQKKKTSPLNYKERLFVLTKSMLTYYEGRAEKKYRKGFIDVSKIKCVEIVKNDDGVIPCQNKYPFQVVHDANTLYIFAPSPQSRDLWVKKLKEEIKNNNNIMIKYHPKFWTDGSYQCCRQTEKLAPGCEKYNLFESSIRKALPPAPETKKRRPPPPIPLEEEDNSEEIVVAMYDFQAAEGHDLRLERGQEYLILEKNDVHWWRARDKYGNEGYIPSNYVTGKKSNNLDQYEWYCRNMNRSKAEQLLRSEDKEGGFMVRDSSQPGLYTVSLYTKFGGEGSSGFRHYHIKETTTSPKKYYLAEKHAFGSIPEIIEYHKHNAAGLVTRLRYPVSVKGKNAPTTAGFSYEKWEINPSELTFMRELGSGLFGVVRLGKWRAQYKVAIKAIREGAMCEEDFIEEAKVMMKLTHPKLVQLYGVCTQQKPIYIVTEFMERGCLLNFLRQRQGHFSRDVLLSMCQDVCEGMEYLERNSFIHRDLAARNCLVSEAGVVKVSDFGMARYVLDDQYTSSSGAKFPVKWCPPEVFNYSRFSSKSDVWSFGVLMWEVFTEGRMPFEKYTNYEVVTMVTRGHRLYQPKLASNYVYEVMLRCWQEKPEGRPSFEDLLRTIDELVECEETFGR

[7] = Therapeutic index, ratio of CC50 for rat RBL2H3 cells to IC50 for Antiallergic activity against anti-DNP-IgE sensitized rat RBL-2H3 cells; format: toxicity; details: read-out: TI
[8] = molecular target: T3, Tyrosine-protein kinase Tec (Homo sapiens); assay: Inhibition of human recombinant Tec (174 to end) at 50 nM by radiometric scintillation counting analysis relative to control
[9] = molecular target: Tyrosine-protein kinase Lyn (Homo sapiens, UniProt P07948); assay: Inhibition of human full length recombinant LYN by radiometric scintillation counting analysis
[10] = molecular target: Tyrosine-protein kinase Lck (Homo sapiens, UniProt P06239); assay: Inhibition of human full length recombinant LCK by radiometric scintillation counting analysis
RBL-2H3 = assay: Antiallergic activity against anti-DNP-IgE sensitized rat RBL-2H3 cells assessed as […] of degranulation by measuring beta-hexosaminidase release using P-nitrophenyl-N-acetyl-D-glucosamide as substrate at 1 uM measured after 1 hr by microplate reader relative to control; format: functional
[11] = molecular target: T1, Macrophage colony-stimulating factor 1 receptor; assay: Inhibition of human recombinant CSF1R using ATP/Ulight-TK peptide at 50 nM incubated for 15 mins
[12] = molecular target: T4, Inhibitor of nuclear factor kappa-B kinase subunit alpha (Homo sapiens) (UniProt O15111); assay: Inhibition of human full length recombinant IKKalpha at 50 nM by radiometric scintillation counting analysis relative to control
T4 sequence (whole entry): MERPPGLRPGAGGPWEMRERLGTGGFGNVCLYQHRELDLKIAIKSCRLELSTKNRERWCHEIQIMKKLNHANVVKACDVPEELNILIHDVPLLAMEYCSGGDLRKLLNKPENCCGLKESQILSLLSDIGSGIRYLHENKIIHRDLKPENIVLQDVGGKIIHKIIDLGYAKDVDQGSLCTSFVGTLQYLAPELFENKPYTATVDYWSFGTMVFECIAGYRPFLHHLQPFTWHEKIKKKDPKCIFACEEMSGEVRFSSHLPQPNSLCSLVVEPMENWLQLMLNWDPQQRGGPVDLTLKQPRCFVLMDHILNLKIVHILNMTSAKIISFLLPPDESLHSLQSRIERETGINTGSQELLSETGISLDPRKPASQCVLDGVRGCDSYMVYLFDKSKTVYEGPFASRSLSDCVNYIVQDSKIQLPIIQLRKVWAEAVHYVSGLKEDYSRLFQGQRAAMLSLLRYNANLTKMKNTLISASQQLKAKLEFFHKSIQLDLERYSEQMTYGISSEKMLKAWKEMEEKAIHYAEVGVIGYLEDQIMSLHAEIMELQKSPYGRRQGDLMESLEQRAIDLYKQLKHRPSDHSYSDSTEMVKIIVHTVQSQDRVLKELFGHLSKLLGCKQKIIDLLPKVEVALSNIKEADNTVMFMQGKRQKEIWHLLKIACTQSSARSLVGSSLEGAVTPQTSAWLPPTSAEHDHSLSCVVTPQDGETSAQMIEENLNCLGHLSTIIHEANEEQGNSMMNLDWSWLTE

[13] = molecular target: RAC-alpha serine/threonine-protein kinase (Homo sapiens) (UniProt P31749); assay: Inhibition of human recombinant PKBalpha at 500 nM radiometric scintillation counting analysis relative to control
Sequence of RAC-alpha serine/threonine-protein kinase (Homo sapiens) (P31749 whole entry): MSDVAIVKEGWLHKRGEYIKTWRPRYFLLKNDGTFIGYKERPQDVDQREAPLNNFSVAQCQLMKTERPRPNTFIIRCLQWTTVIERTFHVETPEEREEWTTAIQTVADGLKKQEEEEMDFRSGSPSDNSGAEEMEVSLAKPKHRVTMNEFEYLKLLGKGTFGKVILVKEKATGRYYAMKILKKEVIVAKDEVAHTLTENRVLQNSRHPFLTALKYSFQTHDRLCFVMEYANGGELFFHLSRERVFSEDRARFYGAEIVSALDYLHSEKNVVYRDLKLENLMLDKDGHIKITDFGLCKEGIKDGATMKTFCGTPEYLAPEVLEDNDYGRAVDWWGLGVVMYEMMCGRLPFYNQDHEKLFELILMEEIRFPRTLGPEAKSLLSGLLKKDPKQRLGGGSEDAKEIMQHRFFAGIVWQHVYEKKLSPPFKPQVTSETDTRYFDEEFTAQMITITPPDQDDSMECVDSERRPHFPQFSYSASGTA

T1 sequence (P07333 whole entry): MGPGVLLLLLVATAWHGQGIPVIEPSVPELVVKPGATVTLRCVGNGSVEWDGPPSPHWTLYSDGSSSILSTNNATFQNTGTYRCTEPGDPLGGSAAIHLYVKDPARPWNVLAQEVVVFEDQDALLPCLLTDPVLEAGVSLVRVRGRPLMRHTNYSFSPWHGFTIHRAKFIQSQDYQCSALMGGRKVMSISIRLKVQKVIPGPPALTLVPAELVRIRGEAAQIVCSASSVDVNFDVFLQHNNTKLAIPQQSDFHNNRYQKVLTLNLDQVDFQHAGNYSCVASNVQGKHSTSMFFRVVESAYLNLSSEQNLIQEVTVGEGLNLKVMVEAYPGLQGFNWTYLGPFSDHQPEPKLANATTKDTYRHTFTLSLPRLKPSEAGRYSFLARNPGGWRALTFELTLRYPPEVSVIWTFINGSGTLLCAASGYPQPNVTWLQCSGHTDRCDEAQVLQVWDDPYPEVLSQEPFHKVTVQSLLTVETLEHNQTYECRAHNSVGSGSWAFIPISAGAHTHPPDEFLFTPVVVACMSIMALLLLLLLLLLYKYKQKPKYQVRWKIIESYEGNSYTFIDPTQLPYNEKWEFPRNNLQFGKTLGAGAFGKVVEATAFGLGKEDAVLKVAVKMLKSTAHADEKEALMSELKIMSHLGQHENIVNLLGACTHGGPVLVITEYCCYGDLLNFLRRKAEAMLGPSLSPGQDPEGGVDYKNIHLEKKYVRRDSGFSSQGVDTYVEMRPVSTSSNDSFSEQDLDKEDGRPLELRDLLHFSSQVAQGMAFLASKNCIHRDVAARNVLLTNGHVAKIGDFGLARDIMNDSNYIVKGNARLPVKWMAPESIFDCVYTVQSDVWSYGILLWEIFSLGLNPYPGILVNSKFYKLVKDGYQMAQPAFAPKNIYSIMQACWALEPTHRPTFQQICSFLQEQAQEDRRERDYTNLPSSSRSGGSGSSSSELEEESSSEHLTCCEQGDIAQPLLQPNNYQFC
Sequence of Tyrosine-protein kinase Lyn (P07948 whole entry): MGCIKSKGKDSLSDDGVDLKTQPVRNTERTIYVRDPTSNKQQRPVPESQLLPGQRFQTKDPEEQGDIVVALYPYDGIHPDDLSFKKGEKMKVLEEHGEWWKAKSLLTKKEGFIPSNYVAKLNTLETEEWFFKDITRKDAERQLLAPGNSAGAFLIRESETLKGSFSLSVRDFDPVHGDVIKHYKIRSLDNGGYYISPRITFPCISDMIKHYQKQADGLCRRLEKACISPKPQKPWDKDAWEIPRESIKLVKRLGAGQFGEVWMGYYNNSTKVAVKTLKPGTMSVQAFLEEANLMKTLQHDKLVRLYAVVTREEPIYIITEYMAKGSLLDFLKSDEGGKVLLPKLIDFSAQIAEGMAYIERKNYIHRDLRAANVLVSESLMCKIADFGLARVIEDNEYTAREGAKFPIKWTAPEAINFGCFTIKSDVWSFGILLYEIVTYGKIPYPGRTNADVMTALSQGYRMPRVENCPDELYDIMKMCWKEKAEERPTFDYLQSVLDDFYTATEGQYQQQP
Sequence of Tyrosine-protein kinase Lck (P06239 whole entry): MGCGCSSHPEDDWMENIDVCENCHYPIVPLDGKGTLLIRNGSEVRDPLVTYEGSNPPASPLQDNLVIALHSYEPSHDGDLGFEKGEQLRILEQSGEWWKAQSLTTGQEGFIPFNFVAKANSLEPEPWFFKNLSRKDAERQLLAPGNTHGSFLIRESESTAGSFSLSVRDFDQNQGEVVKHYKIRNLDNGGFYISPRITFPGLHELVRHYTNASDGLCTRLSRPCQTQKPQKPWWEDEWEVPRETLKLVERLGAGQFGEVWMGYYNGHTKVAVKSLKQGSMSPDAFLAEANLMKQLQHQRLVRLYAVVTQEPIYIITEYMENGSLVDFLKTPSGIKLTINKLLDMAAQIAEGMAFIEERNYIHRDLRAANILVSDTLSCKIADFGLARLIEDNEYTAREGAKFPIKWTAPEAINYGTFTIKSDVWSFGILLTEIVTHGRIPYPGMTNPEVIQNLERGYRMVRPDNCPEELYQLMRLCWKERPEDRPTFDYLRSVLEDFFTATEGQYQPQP
Sequence of Proto-oncogene tyrosine-protein kinase Src (P12931 2-536 limits assumed): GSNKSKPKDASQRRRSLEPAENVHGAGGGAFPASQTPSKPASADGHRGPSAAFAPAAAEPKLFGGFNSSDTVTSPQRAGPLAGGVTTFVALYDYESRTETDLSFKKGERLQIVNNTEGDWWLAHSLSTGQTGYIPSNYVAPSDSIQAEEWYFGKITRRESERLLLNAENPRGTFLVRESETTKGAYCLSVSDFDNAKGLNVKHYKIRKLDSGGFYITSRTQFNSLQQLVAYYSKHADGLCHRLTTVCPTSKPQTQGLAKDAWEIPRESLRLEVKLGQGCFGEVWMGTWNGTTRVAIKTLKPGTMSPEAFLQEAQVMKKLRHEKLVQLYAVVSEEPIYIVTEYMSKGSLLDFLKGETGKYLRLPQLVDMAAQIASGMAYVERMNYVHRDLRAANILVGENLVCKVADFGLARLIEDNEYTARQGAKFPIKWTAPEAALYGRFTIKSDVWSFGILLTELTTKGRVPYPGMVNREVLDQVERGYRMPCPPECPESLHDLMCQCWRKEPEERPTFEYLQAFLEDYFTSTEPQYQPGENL
Sequence of Tyrosine-protein kinase BTK (Homo sapiens) (Q06187 whole entry): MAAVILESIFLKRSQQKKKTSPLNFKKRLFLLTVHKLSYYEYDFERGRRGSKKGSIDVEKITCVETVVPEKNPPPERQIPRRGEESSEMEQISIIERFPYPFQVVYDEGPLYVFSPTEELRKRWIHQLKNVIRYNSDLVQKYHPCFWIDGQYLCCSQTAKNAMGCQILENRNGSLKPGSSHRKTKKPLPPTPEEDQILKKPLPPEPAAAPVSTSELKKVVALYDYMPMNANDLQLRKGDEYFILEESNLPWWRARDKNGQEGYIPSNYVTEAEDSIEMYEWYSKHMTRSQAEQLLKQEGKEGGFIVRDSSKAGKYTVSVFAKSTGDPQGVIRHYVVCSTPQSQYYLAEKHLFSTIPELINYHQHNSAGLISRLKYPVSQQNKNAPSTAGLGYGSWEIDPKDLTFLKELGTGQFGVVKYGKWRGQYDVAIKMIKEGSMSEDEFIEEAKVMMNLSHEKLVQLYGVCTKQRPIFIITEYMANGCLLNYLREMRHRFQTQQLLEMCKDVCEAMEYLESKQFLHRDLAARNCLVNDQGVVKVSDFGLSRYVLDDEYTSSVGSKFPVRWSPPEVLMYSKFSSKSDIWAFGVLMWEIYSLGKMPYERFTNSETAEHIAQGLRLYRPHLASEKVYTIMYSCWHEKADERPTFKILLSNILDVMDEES

| inhibition [13] [%] | Structure (SMILES) | IC50 [1] [nM] | inhibition [2] [%] | IC50 [3] [nM] | IC50 [4] [nM] | inhibition [5] [%] | inhibition [6] [%] | selectivity ratio [7] | inhibition [8] [%] | IC50 [9] [nM] | IC50 [10] [nM] | inhibition at 1 µM (RBL-2H3) [%] | IC50 [11] [nM] | inhibition [12] [%] |
| --- | --- | --- | --- | --- | --- | --- | --- | --- | --- | --- | --- | --- | --- | --- |
| – | Cc1ccc(C(=O)Nc2cc(C(F)(F)F)cc(C(F)(F)F)c2)cc1C#Cc1cc(-c2cnn(C)c2)cnc1N | 48 | 24 | 12 | 187 | 27 | -3 | 148 | 10 | 9 | 101 | 144 | 48 | 3 |
| -5 | Cc1ccc(C(=O)Nc2ccc(OC(F)(F)F)cc2)cc1C#Cc1cc(-c2cnn(C)c2)cnc1N | 22 | – | – | – | – | – | 16.3 | – | – | – | 144 | – | – |
| 2 | Cc1ccc(C(=O)Nc2ccc(Cl)cc2Cl)cc1C#Cc1cc(-c2cnn(C)c2)cnc1N | – | 23 | 163 | > 1000 | 8 | -7 | – | -10 | 7 | 29 | – | 11 | 9 |
